The values below come from ChEMBL document CHEMBL5584283, “Evaluation of Antibacterial Functionalized Dihydropyrimidine Photoaffinity Probes Toward Mechanism of Action Studies” (ACS Med Chem Lett, 2024).

Data set [1] concerns Staphylococcus aureus. In words: Antibacterial activity against Staphylococcus aureus ATCC 43300 assessed as reduction in bacterial growth measured after 18 hrs by two-fold serial dilution method. It is filed as functional.
Data set [2] has as its system Staphylococcus aureus. In words: Antibacterial activity against Staphylococcus aureus ATCC 12600 assessed as reduction in bacterial growth measured after 18 hrs by two-fold serial dilution method. Type of data set: functional.
In data set [3] the test system is Staphylococcus aureus. Kind of data set: Antibacterial activity against Staphylococcus aureus ATCC 33591 assessed as reduction in bacterial growth measured after 18 hrs by two-fold serial dilution method. Type of data set: functional.
Another data set deals with Erythrocyte. In words: Hemolytic activity in sheep RBC assessed as hemolysis incubated for 1 hr by absorbance based analysis. It is filed as toxicity, cell-based, Ovis aries.
Data set [4] concerns Staphylococcus aureus. Kind of data set: Antibacterial activity against Staphylococcus aureus ATCC 33591 assessed as partial growth inhibition at high concentration measured after 18 hrs by two-fold serial dilution method relative to control. It is filed as functional.
Data set [5] concerns Staphylococcus aureus. Kind of data set: Antibacterial activity against Staphylococcus aureus ATCC 12600 assessed as partial growth inhibition at high concentration measured after 18 hrs by two-fold serial dilution method relative to control. It is filed as functional.
Data set [6] deals with Staphylococcus aureus. Kind of data set: Antibacterial activity against Staphylococcus aureus ATCC 43300 assessed as partial growth inhibition at high concentration measured after 18 hrs by two-fold serial dilution method relative to control. Type of data set: functional.

≈ marks a conversion by molar mass, not a printed value.

What is called MIC is the lowest concentration found to suppress growth. On to GENTAMICIN, for which the MIC was 128 µg/mL with Staphylococcus aureus [1], 4 µg/mL in the data set on Staphylococcus aureus [2] and 4 µg/mL in the data set with Staphylococcus aureus [3].
For the compound `CCOC(=O)C1=C(c2ccccc2)NC(N)=NC1c1cccc(Cl)c1` (configuration not stated), in the data set with Erythrocyte, the HC20 is more than 64 µg/mL.
Same read-out and setting: the result for `CCOC(=O)C1=C(c2ccccc2)NC(N)=NC1c1ccc(-c2ccccc2)cc1` (configuration not stated) reads more than 64 µg/mL.
With `CCOC(=O)C1=C(c2ccccc2)NC(N)=NC1c1cccc(C)c1` (configuration not stated), the “growth inhibition (GI)” value with Staphylococcus aureus [4], in the data set with Staphylococcus aureus [5] and in the data set on Staphylococcus aureus [6] was more than 95% throughout. Further, the MIC in the data set on Staphylococcus aureus [1], in the data set on Staphylococcus aureus [2] and in the data set on Staphylococcus aureus [3] was 64 µg/mL (≈ 191 µM) each time.
Regarding `CCOC(=O)C1=C(c2ccccc2)NC(N)=NC1c1cc(Cl)cc(Cl)c1` (configuration not stated), the “growth inhibition (GI)” value in the data set with Staphylococcus aureus [4], in the data set with Staphylococcus aureus [5] and in the data set on Staphylococcus aureus [6] was more than 95% throughout. Moreover, the HC20 in the data set on Erythrocyte was more than 64 µg/mL.
Take `CCOC(=O)C1=C(c2ccccc2)NC(N)=NC1c1cccc([N+](=O)[O-])c1` (configuration not stated): the “growth inhibition (GI)” value with Staphylococcus aureus [4] and with Staphylococcus aureus [6] was more than 95% in each case.
On to `CCOC(=O)C1=C(c2ccccc2)NC(N)=NC1c1ccc(C(C)C)cc1` (configuration not stated), for which the “growth inhibition (GI)” value in the data set on Staphylococcus aureus [4], in the data set with Staphylococcus aureus [5] and with Staphylococcus aureus [6] was more than 95% throughout. For the same compound, in the data set with Erythrocyte, the HC20 is more than 64 µg/mL.
For the compound `CCOC(=O)C1=C(c2ccccc2)NC(N)=NC1c1ccc(N(C)C)cc1` (configuration not stated), the “growth inhibition (GI)” value with Staphylococcus aureus [4], in the data set on Staphylococcus aureus [5] and in the data set on Staphylococcus aureus [6] was more than 95% each time. Further, the minimum inhibitory concentration (MIC) in the data set with Staphylococcus aureus [1], in the data set with Staphylococcus aureus [2] and in the data set with Staphylococcus aureus [3] was 64 µg/mL (≈ 176 µM) throughout.
In the case of `CCOC(=O)C1=C(c2ccccc2)NC(N)=NC1c1ccccc1` (configuration not stated), the HC20 in the data set on Erythrocyte was more than 64 µg/mL.
Regarding `CCOC(=O)C1=C(c2ccccc2)NC(N)=NC1c1ccc(CC(C)C)cc1` (configuration not stated), in the data set with Staphylococcus aureus [4], the “growth inhibition (GI)” value is recorded as more than 95%. The HC20 in the data set on Erythrocyte was more than 64 µg/mL.
Take `CCOC(=O)C1=C(c2cccc(F)c2)NC(N)=NC1c1cc(Cl)cc(Cl)c1` (configuration not stated): the HC20 in the data set on Erythrocyte was more than 64 µg/mL.
Consider `CCOC(=O)C1=C(c2ccccc2)NC(N)=NC1c1ccc(F)cc1` (configuration not stated), for which the “growth inhibition (GI)” value in the data set on Staphylococcus aureus [4], in the data set with Staphylococcus aureus [5] and in the data set with Staphylococcus aureus [6] was more than 95% in each case. Also, the MIC with Staphylococcus aureus [1], in the data set on Staphylococcus aureus [2] and in the data set with Staphylococcus aureus [3] was 64 µg/mL (≈ 189 µM) each time.
Consider `CCOC(=O)C1=C(c2ccccc2)NC(N)=NC1c1ccccc1C` (configuration not stated), for which the “growth inhibition (GI)” value in the data set on Staphylococcus aureus [4], in the data set with Staphylococcus aureus [5] and in the data set with Staphylococcus aureus [6] was more than 95% in each case. Besides, the MIC with Staphylococcus aureus [1], in the data set on Staphylococcus aureus [2] and with Staphylococcus aureus [3] was 64 µg/mL (≈ 191 µM) each time.
Regarding `CCOC(=O)C1=C(c2cccc(C(F)(F)F)c2)NC(N)=NC1c1ccc(CC(C)C)cc1` (configuration not stated), in the data set with Erythrocyte, the HC20 amounted to 64 µg/mL.
Consider `CCOC(=O)C1=C(c2ccccc2)NC(N)=NC1c1cccc(F)c1` (configuration not stated), for which the “growth inhibition (GI)” value in the data set on Staphylococcus aureus [4], in the data set on Staphylococcus aureus [5] and in the data set with Staphylococcus aureus [6] was more than 95% each time. For the same compound, the MIC with Staphylococcus aureus [1], with Staphylococcus aureus [2] and in the data set on Staphylococcus aureus [3] was 64 µg/mL (≈ 189 µM) throughout.
Consider `CCOC(=O)C1=C(CC)NC(N)=NC1c1ccc(-c2ccccc2)cc1` (configuration not stated), for which the MIC with Staphylococcus aureus [1] and in the data set with Staphylococcus aureus [2] was 4 µg/mL (≈ 11.4 µM) in each case. Also, the “growth inhibition (GI)” value in the data set on Staphylococcus aureus [5] and with Staphylococcus aureus [6] was more than 95% throughout.
In the case of `CCOC(=O)C1=C(c2cccc(C)c2)NC(N)=NC1c1cc(Cl)cc(Cl)c1` (configuration not stated), the HC20 in the data set on Erythrocyte was more than 64 µg/mL.
For the compound `CCOC(=O)C1=C(CC)NC(N)=NC1c1ccc(CC(C)C)cc1` (configuration not stated), the “growth inhibition (GI)” value with Staphylococcus aureus [5] and in the data set with Staphylococcus aureus [6] was more than 95% throughout. Further, the HC20 with Erythrocyte is more than 64 µg/mL.
Take `COc1cc(Cc2cnc(N)nc2N)cc(OC)c1OC` [TRIMETHOPRIM]: the “growth inhibition (GI)” value in the data set on Staphylococcus aureus [4], in the data set with Staphylococcus aureus [5] and with Staphylococcus aureus [6] was more than 95% throughout. In addition, the MIC in the data set with Staphylococcus aureus [1] amounted to 8 µg/mL (≈ 27.6 µM); in the data set on Staphylococcus aureus [2], 32 µg/mL (≈ 110 µM); with Staphylococcus aureus [3], 8 µg/mL (≈ 27.6 µM).
`CCOC(=O)C1=C(c2ccccc2)NC(N)=NC1c1c(C)cccc1C` (configuration not stated): the MIC in the data set with Staphylococcus aureus [1] and with Staphylococcus aureus [2] was 32 µg/mL (≈ 91.6 µM) in each case. For the same compound, the “growth inhibition (GI)” value with Staphylococcus aureus [5] and with Staphylococcus aureus [6] was more than 95% in each case.
In the case of `CCOC(=O)C1=C(c2ccccc2)NC(N)=NC1c1ccc(C)c(C)c1` (configuration not stated), the “growth inhibition (GI)” value with Staphylococcus aureus [4] and in the data set on Staphylococcus aureus [5] was more than 95% in each case.
As for `CCOC(=O)C1=C(c2cccc(C(F)(F)F)c2)NC(N)=NC1c1cc(Cl)cc(Cl)c1` (configuration not stated), the HC20 with Erythrocyte is more than 64 µg/mL.
`CCOC(=O)C1=C(c2ccccc2)NC(N)=NC1c1ccc(OC)cc1` (configuration not stated): in the data set on Staphylococcus aureus [2], the MIC is 64 µg/mL (≈ 182 µM). Besides, the “growth inhibition (GI)” value in the data set with Staphylococcus aureus [5] is recorded as more than 95%. In the data set on Erythrocyte, the HC20 is more than 64 µg/mL.
On to `CCOC(=O)C1=C(c2cccc(F)c2)NC(N)=NC1c1ccc(CC(C)C)cc1` (configuration not stated), for which the HC20 in the data set on Erythrocyte is more than 64 µg/mL.
With `CCOC(=O)C1=C(c2ccccc2)NC(N)=NC1c1ccc(C)cc1C` (configuration not stated), the “growth inhibition (GI)” value in the data set on Staphylococcus aureus [4], with Staphylococcus aureus [5] and in the data set on Staphylococcus aureus [6] was more than 95% throughout. The minimal inhibitory concentration (MIC) in the data set with Staphylococcus aureus [1], in the data set with Staphylococcus aureus [2] and with Staphylococcus aureus [3] was 32 µg/mL (≈ 91.6 µM) throughout.
For `CCOC(=O)C1=C(c2ccccc2)NC(N)=NC1c1ccccc1OC` (configuration not stated), the HC20 with Erythrocyte was more than 64 µg/mL.
